For data set [1], the target named is T1, human TLR7 (Homo sapiens, UniProt Q9NYK1).
T1 construct: host or cells: HEK293 (HEK-Blue hTLR7)
T1 sequence (Q9NYK1 27-1049): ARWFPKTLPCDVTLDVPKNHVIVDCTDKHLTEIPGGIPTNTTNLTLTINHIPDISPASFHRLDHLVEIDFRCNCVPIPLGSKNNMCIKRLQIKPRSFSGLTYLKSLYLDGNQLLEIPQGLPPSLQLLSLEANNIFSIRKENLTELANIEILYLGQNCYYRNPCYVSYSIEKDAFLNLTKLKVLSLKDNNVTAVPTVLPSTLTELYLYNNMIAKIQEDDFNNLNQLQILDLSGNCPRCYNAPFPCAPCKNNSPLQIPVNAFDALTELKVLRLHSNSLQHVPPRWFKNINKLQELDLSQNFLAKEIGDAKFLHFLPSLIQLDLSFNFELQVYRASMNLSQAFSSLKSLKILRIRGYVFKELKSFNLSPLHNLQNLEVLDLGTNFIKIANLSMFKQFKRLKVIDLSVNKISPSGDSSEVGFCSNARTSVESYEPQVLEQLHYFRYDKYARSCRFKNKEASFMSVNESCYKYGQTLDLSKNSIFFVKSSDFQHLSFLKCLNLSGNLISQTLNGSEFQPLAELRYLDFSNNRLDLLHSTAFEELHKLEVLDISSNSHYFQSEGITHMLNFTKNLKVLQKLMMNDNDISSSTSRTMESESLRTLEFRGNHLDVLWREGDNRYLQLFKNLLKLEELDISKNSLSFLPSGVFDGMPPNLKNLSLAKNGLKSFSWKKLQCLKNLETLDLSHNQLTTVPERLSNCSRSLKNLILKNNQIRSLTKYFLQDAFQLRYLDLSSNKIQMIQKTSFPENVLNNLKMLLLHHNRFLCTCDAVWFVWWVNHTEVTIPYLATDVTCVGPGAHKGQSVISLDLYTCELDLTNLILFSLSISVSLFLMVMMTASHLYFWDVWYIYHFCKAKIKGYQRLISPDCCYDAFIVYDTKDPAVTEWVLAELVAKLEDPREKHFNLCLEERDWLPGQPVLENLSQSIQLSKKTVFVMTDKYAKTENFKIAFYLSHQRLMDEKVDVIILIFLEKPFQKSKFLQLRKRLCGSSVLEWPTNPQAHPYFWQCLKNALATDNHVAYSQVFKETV
In words: HEK293-Blue-hTLR-7 cells assay (SEAP reporter, R848 stimulation). In kind it is cell-based. As to conditions: HEK293-Blue-hTLR7 cells, R848 ligand, 20 hrs incubation; read-out: HEK/hTLR7 IC50. The text has this: HEK293-Blue-hTLR-7 Cells Assay:
A stable HEK293-Blue-hTLR-7 cell line was purchased from InvivoGen (Cat. #: hkb-htlr7, San Diego, Calif., USA). These cells were originally designed for studying the stimulation of human TLR7 by monitoring the activation of NF-κB. A SEAP (secreted embryonic alkaline phosphatase) reporter gene was placed under the control of the IFN-β minimal promoter fused to five NF-κB and AP-1-binding sites. The SEAP was induced by activating NF-κB and AP-1 via stimulating HEK-Blue hTLR7 cells with TLR7 ligands. Therefore the reporter expression was declined by TLR7 antagonist under the stimulation of a ligand, such as R848 (Resiquimod), for incubation of 20 hrs. The cell culture supernatant SEAP reporter activity was determined using QUANTI-Blue™ kit (Cat. #: rep-qb1, Invivogen, San Diego, Ca, USA) at a wavelength of 640 nm, a detection medium that turns purple or blue in the presence of alkaline phosphatase.
HEK293-Blue-hTLR7 cells were incubated at a density of 250,000-450,000 cells/mL in a volume of 170 μL in a 96-well plate in Dulbecco's Modified Eagle's medium (DMEM) containing 4.5 g/L glucose, 50 U/mL penicillin, […], […], 2 mM L-glutamine, 10% (v/v) heat-inactivated fetal bovine serum with addition of 20 μL test compound in a serial dilution in the presence of final DMSO at 1% and 10 μL of 20 uM R848 in above DMEM, perform incubation under 37° C. in a CO2 incubator for 20 hrs. Then 20 μL of the supernatant from each well was incubated with 180 μL Quanti-blue substrate solution at 37° C. for 2 hrs and the absorbance was read at 620˜655 nm using a spectrophotometer. The signaling pathway that TLR7 activation leads to downstream NF-κB activation has been widely accepted, and therefore similar reporter assay was modified for evaluating TLR7 antagonist.

The nature of data set [2]: Human microsomal stability assay. It is filed as in vitro ADME. Conditions: human liver microsomes, 1 μM test compound, 0.5 mg/mL protein, 37° C.; low <7.0, medium 7.0-16.2, high 16.2-23.2. The protocol: Human Microsomal Stability Assay
Human liver microsomes (Cat. NO.: 452117, Corning, USA) were preincubated with test compound for 10 minutes at 37° C. in 100 mM potassium phosphate buffer, pH 7.4. The reactions were initiated by adding NADPH regenerating system. The final incubation mixtures contained 1 μM test compound, 0.5 mg/mL liver microsomal protein, 1 mM MgCl2, 1 mM NADP, 1 unit/mL isocitric dehydrogenase and 6 mM isocitric acid in 100 mM potassium phosphate buffer, pH 7.4. After incubation times of 0, 3, 6, 9, 15 and 30 minutes at 37° C., 300 μL of cold ACN (including internal standard) was added to 100 μL incubation mixture to terminate the reaction. Following precipitation and centrifugation, 100 uL supernatant will be taken out and added 300 uL water.
The amount of compound remaining in the samples was determined by LC-MS/MS. Controls of no NADPH regenerating system at zero and 30 minutes were also prepared and analyzed. The results were categorized as: low (<7.0 mL/min/kg), medium (7.0-16.2 mL/min/kg) and high (16.2-23.2 mL/min/kg).

Results on two compounds are retold here after patent US20230041743A1, “1,8-NAPHTHYRIDIN-2-ONE COMPOUNDS FOR THE TREATMENT OF AUTOIMMUNE DISEASE” (Hoffmann-La Roche Inc., priority 2019, published 2023).

Take `C[C@@H]1CN(c2cc(=O)n(C)c3ncccc23)C[C@@H]2c3ccc([C@H]4C[C@H]5COC[C@@H](C4)N5)cc3CN12` [Example 28A, 4-[(4R,10bS)-4-methyl-8-(endo-3-oxa-9-azabicyclo[3.3.1]nonan-7-yl)-3,4,6,10b-tetrahydro-1H-pyrazino[2,1-a]isoindol-2-yl]-1-methyl-1,8-naphthyridin-2-one]: the IC50 in data set [1] came to 7.2 nM. The “CL (h)” value in data set [2] is given as 9.2 mL/min/kg.
On to `CCn1c(=O)cc(N2C[C@@H](C)N3Cc4cc(N5C[C@@H](N)[C@H](OC)C5)ccc4[C@H]3C2)c2cccnc21` [Example 29, 4-[(4R,10bS)-8-[(3R,4R)-3-amino-4-methoxy-pyrrolidin-1-yl]-4-methyl-3,4,6,10b-tetrahydro-1H-pyrazino[2,1-a]isoindol-2-yl]-1-ethyl-1,8-naphthyridin-2-one], for which the IC50 in data set [1] was 85.2 nM. Besides, in data set [2], the “CL (h)” value came to 6.4 mL/min/kg.
